Test system: SEM cells
Assay: cell viability relative to DMSO control; higher = less cytotoxic
Settings: 48 h
Procedure, shortened: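 Viability is expressed as a percentage of DMSO wells within each plate, and cell-free wells serve as background. Seeding densities in the 1536-well plates (5 μl) were 500 cells/well for NOMO1 or SEM leukemia cells and 1000 cells/well for P12-Ichikawa. Each line was adapted for at least four passages in each medium. Library compounds in DMSO were pin-dosed at 47 μM to 0.79 nM (11 points, threefold), and CellTiter-Glo One luminescence was read after 48 h at 37°C.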

[1] = HPLM + 10% dialyzed FBS, 0.000781 µM
[2] = HPLM + 10% dialyzed FBS, 0.00234 µM
[3] = HPLM + 10% dialyzed FBS, 0.00702 µM
[4] = HPLM + 10% dialyzed FBS, 0.0211 µM
[5] = HPLM + 10% dialyzed FBS, 0.0632 µM
[6] = HPLM + 10% dialyzed FBS, 0.19 µM
[7] = HPLM + 10% dialyzed FBS, 0.569 µM
[8] = HPLM + 10% dialyzed FBS, 1.71 µM
[9] = HPLM + 10% dialyzed FBS, 5.12 µM
[10] = HPLM + 10% dialyzed FBS, 15.4 µM
[11] = HPLM + 10% dialyzed FBS, 46.1 µM
[12] = RPMI 5 mM glucose + 10% FBS, 0.000781 µM
[13] = RPMI 5 mM glucose + 10% FBS, 0.00234 µM
[14] = RPMI 5 mM glucose + 10% FBS, 0.00702 µM
[15] = RPMI 5 mM glucose + 10% FBS, 0.0211 µM
[16] = RPMI 5 mM glucose + 10% FBS, 0.0632 µM
[17] = RPMI 5 mM glucose + 10% FBS, 0.19 µM
[18] = RPMI 5 mM glucose + 10% FBS, 0.569 µM
[19] = RPMI 5 mM glucose + 10% FBS, 1.71 µM
[20] = RPMI 5 mM glucose + 10% FBS, 5.12 µM
[21] = RPMI 5 mM glucose + 10% FBS, 15.4 µM
[22] = RPMI 5 mM glucose + 10% FBS, 46.1 µM
[23] = RPMI 5 mM glucose + 10% dialyzed FBS, 0.000781 µM
[24] = RPMI 5 mM glucose + 10% dialyzed FBS, 0.00234 µM
[25] = RPMI 5 mM glucose + 10% dialyzed FBS, 0.00702 µM
[26] = RPMI 5 mM glucose + 10% dialyzed FBS, 0.0211 µM
[27] = RPMI 5 mM glucose + 10% dialyzed FBS, 0.0632 µM
[28] = RPMI 5 mM glucose + 10% dialyzed FBS, 0.19 µM
[29] = RPMI 5 mM glucose + 10% dialyzed FBS, 0.569 µM
[30] = RPMI 5 mM glucose + 10% dialyzed FBS, 1.71 µM
[31] = RPMI 5 mM glucose + 10% dialyzed FBS, 5.12 µM
[32] = RPMI 5 mM glucose + 10% dialyzed FBS, 15.4 µM
[33] = RPMI 5 mM glucose + 10% dialyzed FBS, 46.1 µM

| Structure (SMILES) | cell viability [1] | cell viability [2] | cell viability [3] | cell viability [4] | cell viability [5] | cell viability [6] | cell viability [7] | cell viability [8] | cell viability [9] | cell viability [10] | cell viability [11] | cell viability [12] | cell viability [13] | cell viability [14] | cell viability [15] | cell viability [16] | cell viability [17] | cell viability [18] | cell viability [19] | cell viability [20] | cell viability [21] | cell viability [22] | cell viability [23] | cell viability [24] | cell viability [25] | cell viability [26] | cell viability [27] | cell viability [28] | cell viability [29] | cell viability [30] | cell viability [31] | cell viability [32] | cell viability [33] |
| --- | --- | --- | --- | --- | --- | --- | --- | --- | --- | --- | --- | --- | --- | --- | --- | --- | --- | --- | --- | --- | --- | --- | --- | --- | --- | --- | --- | --- | --- | --- | --- | --- | --- |
| Cc1ccc([S+](=O)([O-])NC(=O)NN2CC3CCCC3C2)cc1 (configuration not stated) | 57.6% | 102% | 89.1% | 106% | 101% | 100% | 96.9% | 86.1% | 58.7% | 18.7% | 9.78% | 55.2% | 93.6% | 77.9% | 94.5% | 106% | 94.4% | 80.8% | 76.6% | 43.7% | 14.9% | 9.35% | 50.2% | 98.7% | 84.5% | 96.6% | 109% | 87.8% | 84.7% | 67.7% | 39.3% | 26.8% | 13.1% |
| NC(=O)c1c(OCc2c(F)cc(Br)cc2F)nsc1NC(=O)NCCCCN1CCCC1 | 116% | 122% | 111% | 106% | 108% | 131% | 118% | 111% | 84.4% | 39.2% | 35.9% | 91.6% | 100% | 78.7% | 83.2% | 90.5% | 110% | 109% | 103% | 75.4% | 22.4% | 27.9% | 97% | 130% | 97.6% | 116% | 97% | 129% | 123% | 114% | 107% | 37.1% | 63.7% |
| Cc1nc(N)sc1-c1ccnc(Nc2ccc(N3CCOCC3)cc2)n1 | 88.8% | 98.7% | 102% | 102% | 107% | 107% | 85.5% | 83.8% | 30.5% | 26.2% | 31.3% | 78.7% | 111% | 124% | 106% | 130% | 107% | 94.9% | 87.1% | 19.1% | 14.2% | 18.1% | 81% | 95.6% | 114% | 118% | 112% | 102% | 81% | 73.7% | 22.4% | 18.4% | 17.2% |
| CC1(C)NC(=O)N(c2ccc([N+](=O)[O-])c(C(F)(F)F)c2)C1=O | 88.7% | 89.7% | 82.5% | 90.8% | 96.9% | 44.9% | 94% | 90.8% | 81% | 87.4% | 84.6% | 98.7% | 79.5% | 92.9% | 96.7% | 104% | 86% | 99.6% | 94.9% | 110% | 87.7% | 93.9% | 99.4% | 91% | 101% | 109% | 96.3% | 74.5% | 104% | 106% | 106% | 78.9% | 90% |
| COC1=CC(=C2C(=O)N(COC/3=C/C(=O)N4\C=C/C=C(OCCN5CCCCC5)\C4=N3)[S+]([O-])(=O)C2=C1)C(C)C | 116% | 119% | 128% | 131% | 103% | 135% | 108% | 83.4% | 148% | 128% | 114% | 119% | 132% | 125% | 129% | 134% | 134% | 106% | 71% | 137% | 143% | 102% | 105% | 113% | 120% | 123% | 114% | 125% | 82.9% | 63.5% | 113% | 114% | 97.5% |
| CCN(CC)CCNC(=O)c1ccc2nc(-c3ccccc3)c(-c3ccc(CN4CCC(n5c(=O)[nH]c6ccccc65)CC4)cc3)nc2c1 | 108% | 116% | 120% | 103% | 83.8% | 54% | 36.8% | 26.7% | 4.83% | 4.21% | 3.45% | 108% | 106% | 124% | 83.8% | 56.4% | 34.4% | 32.9% | 28.9% | 11% | 7.63% | 3.28% | 117% | 112% | 127% | 92.2% | 75.7% | 56.5% | 45.8% | 32.6% | 13.6% | 5.86% | 3.2% |
| O=C1CCc2cc(OCCCCc3nnnn3C3CCCCC3)ccc2N1 | 79.2% | 83.1% | 101% | 92% | 92.9% | 83.8% | 88.8% | 96.2% | 97.8% | 104% | 99.3% | 88.8% | 88.8% | 92% | 91.5% | 88.7% | 75.7% | 107% | 104% | 89.2% | 104% | 81.3% | 80.1% | 90% | 100% | 86.2% | 78.5% | 87.6% | 92.2% | 92.7% | 101% | 90.6% | 88.2% |
| COC1=CC2=C(C=C1CC3=C(F)C(=CC=C3)Cl)C(=O)\C(=C/N2[C@H](CO)C(C)C)C(O)=O | 120% | 120% | 119% | 26.7% | 115% | 133% | 113% | 106% | 117% | 93.7% | 23.7% |  |  |  |  |  |  |  |  |  |  |  |  |  |  |  |  |  |  |  |  |  |  |

Reference: the supplement of paper PMC11451515
